Experiments:
[1] = target: T1, hERG potassium channels (KCNH2 gene, expressed in CHO cells) (Homo sapiens, UniProt Q12809); assay: Ability to block hERG potassium channel (electrophysiology, IonWorks Quattro); type: cell-based; conditions: cloned hERG in CHO cells; test pulse +40 mV; concentration not given
T1 construct: expressed in transfected cells; host or cells: CHO cells
Experimental: Ability to Block hERG Potassium Channel Ability to block hERG potassium channels was determined using the electrophysiological method and cloned hERG potassium channels (KCNH2 gene, expressed in CHO cells) as biological material. The effects were evaluated using IonWorks™ Quattro system (MDS-AT).
hERG current was elicited using a pulse pattern with fixed amplitudes (conditioning pre-pulse: −80 mV for 25 ms; test pulse: +40 mV for 80 ms) from a holding potential of 0 mV. hERG current was measured as a difference between the peak current at 1 ms after the test step to +40 mV and the steady-state current at the end of the step to +40 mV.
Data acquisition and analyses were performed using the lonWorks Quattro™ system operation software (version 2.0.2; Molecular Devices Corporation, Union City, Calif.). Data were corrected for leak current.
The hERG block was calculated as: % Block=(1−I TA/IControl)×100%, where IControl and ITA were the currents elicited by the test pulse in control and in the presence of a test compound, respectively.

[2] = system: Male CD-1 mice; assay: d-Amphetamine-induced locomotor hyperactivity in mice; type: in vivo; conditions: compound i.p., d-amphetamine s.c., immediately before the test, ambulation counted during 2 h
Experimental: Potential antipsychotic activity was tested for the representative compound 60 in mouse model of psychosis, involving the induction of locomotor hyperactivity by administering psychotomimetic substance—d-amphetamine. The ability of a test compound to remove that effect is a measure of potential antipsychotic activity.
Male CD-1 mice weighing 20-22 g derived from accredited animal facility localized at Medical College of Jagiellonian University were group-housed for 3-4 day period in polycarbonate Makrolon type 3 cages (dimensions 26.5×15×42 cm) in an environmentally controlled, experimental room (ambient temperature 22-20C; relative humidity 50-60%; 12:12 light:dark cycle, lights on at 8:00), in groups of 15. Standard laboratory food (Morigram, Agropol) and filtered water were freely available. On the day before experiments the equipment produces “white noise” was turned on for 30 minutes and mice or rats were weighted exact to 1 g. Animals were assigned randomly to treatment groups. […]
The locomotor activity was recorded with an Opto M3 multi-channel activity monitor (MultiDevice Software v.1.3, Columbus Instruments). Mice were individually placed in plastic cages (22×12×13 cm) and then the crossings of each channel (ambulation) were counted during 2 h with data recording every 5 minutes. […]

[3] = target: T2, D2S (h) (Homo sapiens, UniProt P14416); assay: Radioligand binding assay, dopaminergic receptor D2; conditions: test compound 1×10^−6M; [3H]methyl-spiperone; human recombinant (HEK-293 cells)
T2 construct: expressed in transfected cells; host or cells: HEK-293 cells
Experimental: (§1) Specific ligand binding to the receptors is defined as the difference between the total binding and the non-specific binding determined in the presence of an excess of unlabelled ligand.
(§2) The results are expressed as a percent of control specific binding ((measured specific binding/control specific binding)×100%) obtained in the presence of the test compounds. The compounds were tested for their affinity to receptors at a concentration of 1×10^−6M.
(§3) Conditions and methodology of in vitro tests are given by reference to the literature in Table 1, and the results of tests for representative compounds are given in Table 2 (dopaminergic receptors D2 and D3), in Table 3 (dopaminergic receptors D1 and D4.4), in Table 4 (serotoninergic receptors 5-HT1A, 5-HT2A, 5-HT6, 5-HT7), in table 5 (serotoninergic receptors 5-HT2C), in Table 6 (sigma o receptors), in Table 7 (adrenergic receptors α1, histaminergic receptors H1 and muscarinic receptors M3), in Table 8 (adrenergic receptors α2C) and in Table 9 (serotonin transporter receptors SERT).

[4] = target: T3, D3 (h) (Homo sapiens, UniProt P35462); assay: Radioligand binding assay, dopaminergic receptor D3; conditions: test compound 1×10^−6M; [3H]methyl-spiperone; human recombinant (CHO cells)
T3 construct: expressed in transfected cells; host or cells: CHO cells
Experimental: as §1, §2, §3

[5] = target: T4, D1 (h) (Homo sapiens, UniProt P21728); assay: Radioligand binding assay, dopaminergic receptor D1; conditions: test compound 1×10^−6M; [3H]SCH 23390; human recombinant (CHO cells)
T4 construct: expressed in transfected cells; host or cells: CHO cells
Experimental: as §1, §2, §3

[6] = target: T5, D4.4 (h) (Homo sapiens, UniProt P21917); assay: Radioligand binding assay, dopaminergic receptor D4.4; conditions: test compound 1×10^−6M; [3H]methyl-spiperone; human recombinant (CHO cells)
T5 construct: expressed in transfected cells; host or cells: CHO cells
T5 sequence (P21917 1-419): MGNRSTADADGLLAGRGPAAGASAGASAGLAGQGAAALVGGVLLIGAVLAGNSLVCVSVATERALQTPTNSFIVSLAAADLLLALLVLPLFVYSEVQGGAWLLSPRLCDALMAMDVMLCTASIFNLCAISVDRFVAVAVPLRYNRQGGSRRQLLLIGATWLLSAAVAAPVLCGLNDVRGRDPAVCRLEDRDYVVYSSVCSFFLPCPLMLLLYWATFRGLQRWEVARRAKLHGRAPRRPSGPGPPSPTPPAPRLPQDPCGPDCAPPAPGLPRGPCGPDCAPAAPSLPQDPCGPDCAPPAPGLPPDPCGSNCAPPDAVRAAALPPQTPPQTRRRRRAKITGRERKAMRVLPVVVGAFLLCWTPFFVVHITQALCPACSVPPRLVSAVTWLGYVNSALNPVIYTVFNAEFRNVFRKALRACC
Experimental: as §1, §2, §3

[7] = target: T6, 5-HT1A (h) (Homo sapiens, UniProt P08908); assay: Radioligand binding assay, serotoninergic receptor 5-HT1A; conditions: test compound 1×10^−6M; [3H]8-OH-DPAT; human recombinant (HEK-293 cells)
T6 construct: expressed in transfected cells; host or cells: HEK-293 cells
T6 sequence (P08908 1-422): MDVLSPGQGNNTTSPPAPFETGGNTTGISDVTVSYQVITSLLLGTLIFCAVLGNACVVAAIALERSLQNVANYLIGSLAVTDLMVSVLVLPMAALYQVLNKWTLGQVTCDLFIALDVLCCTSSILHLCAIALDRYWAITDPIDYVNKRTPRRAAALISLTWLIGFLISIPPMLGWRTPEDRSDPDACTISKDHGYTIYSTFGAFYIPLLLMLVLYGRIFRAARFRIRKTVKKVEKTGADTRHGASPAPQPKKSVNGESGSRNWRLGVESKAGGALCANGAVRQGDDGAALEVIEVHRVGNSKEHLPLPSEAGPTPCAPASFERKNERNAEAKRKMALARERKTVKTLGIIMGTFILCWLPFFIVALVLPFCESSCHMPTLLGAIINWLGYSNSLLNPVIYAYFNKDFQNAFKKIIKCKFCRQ
Experimental: as §1, §2, §3

[8] = target: T7, 5-HT2A (h) (Homo sapiens, UniProt P28223); assay: Radioligand binding assay, serotoninergic receptor 5-HT2A; conditions: test compound 1×10^−6M; [3H]ketanserin; human recombinant (HEK-293 cells)
T7 construct: expressed in transfected cells; host or cells: HEK-293 cells
Experimental: as §1, §2, §3

[9] = target: T8, 5-HT6 (h) (Homo sapiens, UniProt P50406); assay: Radioligand binding assay, serotoninergic receptor 5-HT6; conditions: test compound 1×10^−6M; [3H]LSD; human recombinant (CHO cells)
T8 construct: expressed in transfected cells; host or cells: CHO cells
Experimental: as §1, §2, §3

[10] = target: T9, 5-HT7 (h) (Homo sapiens, UniProt P34969); assay: Radioligand binding assay, serotoninergic receptor 5-HT7; conditions: test compound 1×10^−6M; [3H]LSD; human recombinant (CHO cells)
T9 construct: expressed in transfected cells; host or cells: CHO cells
Experimental: as §1, §2, §3

[11] = target: T10, 5-HT2C (h) (Homo sapiens, UniProt P28335); assay: Radioligand binding assay, serotoninergic receptor 5-HT2C; conditions: test compound 1×10^−6M; [3H]mesulergine; human recombinant (HEK-293 cells)
T10 construct: expressed in transfected cells; host or cells: HEK-293 cells
T10 sequence (P28335 33-458): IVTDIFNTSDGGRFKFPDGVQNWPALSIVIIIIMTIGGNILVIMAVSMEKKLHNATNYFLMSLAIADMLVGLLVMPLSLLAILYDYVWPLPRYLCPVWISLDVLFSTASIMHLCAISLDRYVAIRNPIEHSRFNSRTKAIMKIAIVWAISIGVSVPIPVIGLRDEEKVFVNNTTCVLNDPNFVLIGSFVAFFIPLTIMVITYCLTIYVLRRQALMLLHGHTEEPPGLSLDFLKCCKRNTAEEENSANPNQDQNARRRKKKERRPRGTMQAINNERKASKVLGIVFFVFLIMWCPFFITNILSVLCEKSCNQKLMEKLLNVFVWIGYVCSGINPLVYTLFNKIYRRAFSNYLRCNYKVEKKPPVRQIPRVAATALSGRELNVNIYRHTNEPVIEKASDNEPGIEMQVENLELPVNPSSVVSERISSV
Experimental: as §1, §2, §3

[12] = system: σ (non-selective); assay: Radioligand binding assay, σ receptors; conditions: test compound 1×10^−6M; [3H]DTG; rat cerebral cortex
Experimental: as §1, §2, §3

[13] = system: α1 (non-selective); assay: Radioligand binding assay, adrenergic α1 receptors; conditions: test compound 1×10^−6M; [3H]prazosin; rat cerebral cortex
Experimental: as §1, §2, §3

[14] = target: T11, H1 (h) (Homo sapiens, UniProt P35367); assay: Radioligand binding assay, histaminergic H1 receptor; conditions: test compound 1×10^−6M; [3H]pyrilamine; human recombinant (HEK-293 cells)
T11 construct: expressed in transfected cells; host or cells: HEK-293 cells
Experimental: as §1, §2, §3

[15] = target: T12, M3 (h) (Homo sapiens, UniProt P20309); assay: Radioligand binding assay, muscarinic M3 receptor; conditions: test compound 1×10^−6M; [3H]4-DAMP; human recombinant (CHO cells)
T12 construct: expressed in transfected cells; host or cells: CHO cells
Experimental: as §1, §2, §3

[16] = target: T13, α2C (h) (Homo sapiens, UniProt P18825); assay: Radioligand binding assay, adrenergic receptor α2C; conditions: test compound 1×10^−6M; [3H]RX 821002; human recombinant (CHO cells)
T13 construct: expressed in transfected cells; host or cells: CHO cells
T13 sequence (P18825 1-462): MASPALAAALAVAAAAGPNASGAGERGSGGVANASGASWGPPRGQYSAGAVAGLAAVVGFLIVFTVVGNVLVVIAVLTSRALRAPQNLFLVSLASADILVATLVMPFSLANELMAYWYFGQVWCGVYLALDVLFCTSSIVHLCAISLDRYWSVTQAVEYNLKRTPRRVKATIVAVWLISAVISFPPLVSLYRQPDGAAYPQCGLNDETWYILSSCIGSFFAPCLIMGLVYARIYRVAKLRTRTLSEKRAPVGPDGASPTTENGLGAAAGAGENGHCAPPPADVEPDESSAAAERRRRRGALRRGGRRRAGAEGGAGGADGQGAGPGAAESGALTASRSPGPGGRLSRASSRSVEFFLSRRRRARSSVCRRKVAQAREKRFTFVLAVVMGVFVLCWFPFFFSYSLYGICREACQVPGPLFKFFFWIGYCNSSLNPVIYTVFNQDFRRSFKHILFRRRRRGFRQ
Experimental: as §1, §2, §3

[17] = target: T14, SERT (h) (Homo sapiens, UniProt P31645); assay: Radioligand binding assay, serotonin transporter (SERT); conditions: test compound 1×10^−6M; [3H]imipramine; human recombinant (CHO cells)
T14 construct: expressed in transfected cells; host or cells: CHO cells
Experimental: as §1, §2, §3

T4 sequence (P21728 whole entry): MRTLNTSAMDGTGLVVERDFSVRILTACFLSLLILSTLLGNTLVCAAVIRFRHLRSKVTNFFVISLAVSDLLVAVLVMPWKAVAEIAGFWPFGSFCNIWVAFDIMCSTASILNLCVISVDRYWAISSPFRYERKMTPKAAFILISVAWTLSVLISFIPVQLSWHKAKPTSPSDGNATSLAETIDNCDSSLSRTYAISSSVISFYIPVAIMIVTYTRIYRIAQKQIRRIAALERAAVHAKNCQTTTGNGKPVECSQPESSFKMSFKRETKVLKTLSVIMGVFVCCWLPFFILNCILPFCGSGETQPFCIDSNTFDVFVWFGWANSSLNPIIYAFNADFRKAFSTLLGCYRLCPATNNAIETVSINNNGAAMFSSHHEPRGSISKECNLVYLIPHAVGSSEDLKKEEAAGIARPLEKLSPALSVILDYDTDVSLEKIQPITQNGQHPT
T11 sequence (P35367 whole entry): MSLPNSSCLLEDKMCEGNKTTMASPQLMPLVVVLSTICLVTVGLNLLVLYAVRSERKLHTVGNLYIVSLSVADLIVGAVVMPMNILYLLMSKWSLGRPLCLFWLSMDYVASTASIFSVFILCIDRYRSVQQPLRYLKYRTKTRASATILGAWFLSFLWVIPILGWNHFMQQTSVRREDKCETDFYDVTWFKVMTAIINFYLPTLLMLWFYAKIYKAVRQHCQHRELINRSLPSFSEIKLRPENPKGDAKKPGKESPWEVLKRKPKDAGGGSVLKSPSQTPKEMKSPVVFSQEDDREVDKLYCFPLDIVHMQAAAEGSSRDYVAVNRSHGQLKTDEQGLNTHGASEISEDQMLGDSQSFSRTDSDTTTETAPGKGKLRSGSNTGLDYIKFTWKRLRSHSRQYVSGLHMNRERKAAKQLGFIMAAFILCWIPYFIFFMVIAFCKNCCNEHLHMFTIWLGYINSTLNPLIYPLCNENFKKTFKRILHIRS
T8 sequence (P50406 whole entry): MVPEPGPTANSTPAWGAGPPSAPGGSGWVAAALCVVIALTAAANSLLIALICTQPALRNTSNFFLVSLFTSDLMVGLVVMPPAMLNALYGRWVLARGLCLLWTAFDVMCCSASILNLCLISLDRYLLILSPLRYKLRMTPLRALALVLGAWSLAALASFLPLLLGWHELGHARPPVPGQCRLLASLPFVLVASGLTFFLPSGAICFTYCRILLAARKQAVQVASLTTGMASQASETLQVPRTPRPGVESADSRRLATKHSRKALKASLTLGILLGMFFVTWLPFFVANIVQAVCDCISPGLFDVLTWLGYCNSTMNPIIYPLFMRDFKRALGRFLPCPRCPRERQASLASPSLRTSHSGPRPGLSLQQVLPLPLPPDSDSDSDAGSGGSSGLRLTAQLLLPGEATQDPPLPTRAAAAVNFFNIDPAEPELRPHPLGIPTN
T14 sequence (P31645 whole entry): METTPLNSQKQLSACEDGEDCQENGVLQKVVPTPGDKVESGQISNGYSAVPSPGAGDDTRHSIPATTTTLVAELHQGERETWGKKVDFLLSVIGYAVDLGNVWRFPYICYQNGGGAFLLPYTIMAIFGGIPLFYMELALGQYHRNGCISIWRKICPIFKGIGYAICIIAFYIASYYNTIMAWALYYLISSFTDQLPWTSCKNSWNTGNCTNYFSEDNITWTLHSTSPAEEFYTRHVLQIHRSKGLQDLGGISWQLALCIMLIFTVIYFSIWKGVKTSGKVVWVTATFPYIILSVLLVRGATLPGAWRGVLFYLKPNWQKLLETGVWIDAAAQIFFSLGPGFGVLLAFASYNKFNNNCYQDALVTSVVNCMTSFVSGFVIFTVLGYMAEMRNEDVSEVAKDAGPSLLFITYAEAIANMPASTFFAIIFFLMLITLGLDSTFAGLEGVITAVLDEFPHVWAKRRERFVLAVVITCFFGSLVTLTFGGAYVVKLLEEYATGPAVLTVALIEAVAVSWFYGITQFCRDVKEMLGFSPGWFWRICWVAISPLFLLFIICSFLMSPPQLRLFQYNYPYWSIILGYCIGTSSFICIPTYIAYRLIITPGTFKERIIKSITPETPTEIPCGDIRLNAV
T9 sequence (P34969 whole entry): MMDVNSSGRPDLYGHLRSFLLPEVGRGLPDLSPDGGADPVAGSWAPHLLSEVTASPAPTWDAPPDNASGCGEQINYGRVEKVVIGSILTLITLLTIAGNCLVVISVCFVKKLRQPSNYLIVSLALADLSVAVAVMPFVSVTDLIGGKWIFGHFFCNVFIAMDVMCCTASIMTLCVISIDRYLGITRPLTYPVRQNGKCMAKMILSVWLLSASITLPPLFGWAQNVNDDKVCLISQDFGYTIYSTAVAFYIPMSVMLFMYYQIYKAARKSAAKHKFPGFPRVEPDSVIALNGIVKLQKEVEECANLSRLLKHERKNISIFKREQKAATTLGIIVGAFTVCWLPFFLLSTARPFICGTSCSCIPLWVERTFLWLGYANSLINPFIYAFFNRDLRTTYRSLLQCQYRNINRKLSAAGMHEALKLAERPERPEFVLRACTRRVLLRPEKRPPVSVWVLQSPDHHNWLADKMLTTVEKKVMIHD
T12 sequence (P20309 whole entry): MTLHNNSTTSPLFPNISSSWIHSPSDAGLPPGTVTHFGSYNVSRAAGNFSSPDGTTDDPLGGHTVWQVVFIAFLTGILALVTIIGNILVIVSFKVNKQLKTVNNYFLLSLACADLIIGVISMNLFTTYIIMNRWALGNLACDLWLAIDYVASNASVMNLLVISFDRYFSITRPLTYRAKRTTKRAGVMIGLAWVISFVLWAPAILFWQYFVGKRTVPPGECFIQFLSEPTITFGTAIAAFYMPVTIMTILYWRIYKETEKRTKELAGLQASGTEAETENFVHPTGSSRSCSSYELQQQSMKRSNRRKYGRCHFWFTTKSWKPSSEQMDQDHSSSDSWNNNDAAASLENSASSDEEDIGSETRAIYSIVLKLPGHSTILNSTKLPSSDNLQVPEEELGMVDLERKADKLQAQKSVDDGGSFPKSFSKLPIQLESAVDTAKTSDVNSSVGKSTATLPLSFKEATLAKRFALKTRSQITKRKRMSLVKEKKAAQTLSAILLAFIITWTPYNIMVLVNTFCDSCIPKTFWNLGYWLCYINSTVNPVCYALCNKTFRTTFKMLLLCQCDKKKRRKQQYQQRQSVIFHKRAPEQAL
T7 sequence (P28223 whole entry): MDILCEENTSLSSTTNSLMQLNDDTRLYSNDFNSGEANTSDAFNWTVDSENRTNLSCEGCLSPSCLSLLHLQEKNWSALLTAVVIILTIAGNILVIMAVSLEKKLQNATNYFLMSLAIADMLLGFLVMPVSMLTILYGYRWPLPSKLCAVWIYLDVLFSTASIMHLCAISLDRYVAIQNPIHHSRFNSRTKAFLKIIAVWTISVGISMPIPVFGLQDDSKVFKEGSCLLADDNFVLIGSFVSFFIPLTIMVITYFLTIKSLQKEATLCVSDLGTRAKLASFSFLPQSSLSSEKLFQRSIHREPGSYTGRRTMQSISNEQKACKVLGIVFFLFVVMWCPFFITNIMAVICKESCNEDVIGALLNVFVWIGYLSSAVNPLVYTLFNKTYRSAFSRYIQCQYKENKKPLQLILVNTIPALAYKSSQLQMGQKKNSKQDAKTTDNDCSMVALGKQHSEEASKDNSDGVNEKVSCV
T2 sequence (P14416 1-414 isoform P14416-2): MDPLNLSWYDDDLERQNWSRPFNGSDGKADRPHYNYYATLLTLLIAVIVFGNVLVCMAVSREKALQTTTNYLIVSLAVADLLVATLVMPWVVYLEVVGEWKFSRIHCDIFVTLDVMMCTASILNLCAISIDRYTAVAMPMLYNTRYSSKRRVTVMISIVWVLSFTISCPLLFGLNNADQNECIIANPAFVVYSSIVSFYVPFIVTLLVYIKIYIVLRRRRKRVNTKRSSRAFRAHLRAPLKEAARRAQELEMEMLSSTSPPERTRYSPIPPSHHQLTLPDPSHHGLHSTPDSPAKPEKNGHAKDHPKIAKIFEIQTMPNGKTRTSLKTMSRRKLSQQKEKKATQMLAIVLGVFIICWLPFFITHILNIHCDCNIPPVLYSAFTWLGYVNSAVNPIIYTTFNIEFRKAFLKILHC
T3 sequence (P35462 whole entry): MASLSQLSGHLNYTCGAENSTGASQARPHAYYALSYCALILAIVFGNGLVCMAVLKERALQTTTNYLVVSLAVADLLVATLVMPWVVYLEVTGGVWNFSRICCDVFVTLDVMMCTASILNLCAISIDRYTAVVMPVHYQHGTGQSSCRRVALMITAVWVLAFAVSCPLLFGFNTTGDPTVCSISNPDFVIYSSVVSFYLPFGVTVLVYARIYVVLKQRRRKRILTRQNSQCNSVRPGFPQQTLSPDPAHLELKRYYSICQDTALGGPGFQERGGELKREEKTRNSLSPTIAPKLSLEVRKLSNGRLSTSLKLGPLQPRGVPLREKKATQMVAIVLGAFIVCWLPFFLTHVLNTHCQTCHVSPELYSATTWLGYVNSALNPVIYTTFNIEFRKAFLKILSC

Row | Molecule | hERG [%] (% Block) [1] | MED (Minimum Effective Dose) [2] [mg/kg] | D2 [%] [3] [%] | D3 [%] [4] [%] | D1 [%] [5] [%] | D4.4 [%] [6] [%] | 5-HT1A [%] [7] [%] | 5-HT2A [%] [8] [%] | 5-HT6 [%] [9] [%] | 5-HT7 [%] [10] [%] | 5-HT2C [%] [11] [%] | σ [%] [12] [%] | α1 [%] [13] [%] | H1 [%] [14] [%] | M3 [%] [15] [%] | α2C [%] [16] [%] | SERT [%] [17] [%]
1 | CN(CCCc1noc2cc(F)ccc12)Cc1cccc(NS(=O)(=O)c2ccccc2)c1 [Compound 60, N-[3-[[3-(6-fluoro-1,2-benzoxazol-3-yl)propylmethylamino]methyl]phenyl]benzenesulphonamide] | 6 | 10 |  |  |  |  |  |  |  |  |  |  |  |  |  |  | 
2 | CN(CCCc1noc2cc(F)ccc12)Cc1cccc(NS(=O)(=O)c2ccc(C(C)(C)C)cc2)c1 [Compound 72, 4-tert-butylo-N-[3-[[3-(6-fluoro-1,2-benzoxazol-3-yl)propylmethylamino]methyl]-phenyl]benzenesulphonamide] |  |  | 93 | 63 | 45 | 60 | 30 | 87 | 99 | 93 | 23 | 80 | 77 | 64 | 25 | 81 | 42
3 | N-[3-[[3-(6-fluoro-1,2-benzoxazol-3-yl)propylamino]methyl]phenyl]naphthalene-1-sulphonamide [Compound 54] |  |  | 94 | 76 | 27 | 54 | 43 | 80 | 88 | 90 | 17 | 50 | 48 | 7 | 2 | 32 | 42

From patent US20150051257A1, “SULPHONAMIDE DERIVATIVES OF BENZYLAMINE FOR THE TREATMENT OF CNS DISEASES” (ADAMED SP. Z O.O, priority 2012, published 2015)
